From patent publication US8987265B2, “Substituted 1,3,5-triazine derivatives of fused bicyclic oxalamide compounds for treatment of Hepatitis C” (priority 2012, dated 2015)
Like-named read-outs stand apart in the source and are kept apart here.

System: HCV pseudoparticles, genotype 1a (H77C) E1 and E2 envelope
Experiment: HCV pseudoparticle infection assay (luciferase, Huh7 cells)
Type: cell-based
Details: Hepatitis C virus, Huh-7, 48 h

Compound	EC50 (read-out: EC50 (nM) 1a (H77C))	EC50 (read-out: EC50 (nM) 1a H77C))
Cc1ccc(NC(=O)C(=O)N2CC3CN(C(=O)c4ccc(Nc5nc(NC6(c7ccc(Cl)cc7)CC6)nc(OCC(F)(F)F)n5)cc4)CC3C2)cc1 (centres unmarked) [Compound 1001]	0.01 to 10 nM	0.12 nM
O=C(NCc1ccc(F)cc1)C(=O)N1CC2CN(C(=O)c3ccc(Nc4nc(NC5(c6ccc(Cl)cc6)CC5)nc(OCC(F)(F)F)n4)cc3)CC2C1 (centres unmarked) [Compound 1002]	0.01 to 10 nM	
NC(=O)C(=O)N1CC2CN(C(=O)c3ccc(Nc4nc(NC5(c6ccc(Cl)cc6)CC5)nc(OCC(F)(F)F)n4)cc3)CC2C1 (centres unmarked) [Compound 1003]	0.01 to 10 nM	
O=C(C(=O)N1CC2CN(C(=O)c3ccc(Nc4nc(NC5(c6ccc(Cl)cc6)CC5)nc(OCC(F)(F)F)n4)cc3)CC2C1)N1CCOCC1 (centres unmarked) [Compound 1004]	0.01 to 10 nM	
CN(C)C(=O)C(=O)N1CC2CN(C(=O)c3ccc(Nc4nc(NC5(c6ccc(Cl)cc6)CC5)nc(OCC(F)(F)F)n4)cc3)CC2C1 (centres unmarked) [Compound 1005]	0.01 to 10 nM	2.68 nM
O=C(Nc1cccc(F)c1)C(=O)N1CC2CN(C(=O)c3ccc(Nc4nc(NC5(c6ccc(Cl)cc6)CC5)nc(OCC(F)(F)F)n4)cc3)CC2C1 (centres unmarked) [Compound 1006]	0.01 to 10 nM	
O=C(Nc1nncs1)C(=O)N1CC2CN(C(=O)c3ccc(Nc4nc(NC5(c6ccc(Cl)cc6)CC5)nc(OCC(F)(F)F)n4)cc3)CC2C1 (centres unmarked) [Compound 1007]	0.01 to 10 nM	
O=C(Nc1ccc(F)cc1)C(=O)N1CC2CN(C(=O)c3ccc(Nc4nc(NC5(c6ccc(Cl)cc6)CC5)nc(OCC(F)(F)F)n4)cc3)CC2C1 (centres unmarked) [Compound 1008]	0.01 to 10 nM	
Cc1cc(NC(=O)C(=O)N2CC3CN(C(=O)c4ccc(Nc5nc(NC6(c7ccc(Cl)cc7)CC6)nc(OCC(F)(F)F)n5)cc4)CC3C2)no1 (centres unmarked) [Compound 1009]	0.01 to 10 nM	
O=C(Nc1cc(F)cc(F)c1)C(=O)N1CC2CN(C(=O)c3ccc(Nc4nc(NC5(c6ccc(Cl)cc6)CC5)nc(OCC(F)(F)F)n4)cc3)CC2C1 (centres unmarked) [Compound 1010]	0.01 to 10 nM	
O=C(Nc1ccccc1)C(=O)N1CC2CN(C(=O)c3ccc(Nc4nc(NC5(c6ccc(Cl)cc6)CC5)nc(OCC(F)(F)F)n4)cc3)CC2C1 (centres unmarked) [Compound 1011]	0.01 to 10 nM	
CC(C)CNC(=O)C(=O)N1CC2CN(C(=O)c3ccc(Nc4nc(NC5(c6ccc(Cl)cc6)CC5)nc(OCC(F)(F)F)n4)cc3)CC2C1 (centres unmarked) [Compound 1012]	0.01 to 10 nM	
O=C(C(=O)N1CC2CN(C(=O)c3ccc(Nc4nc(NC5(c6ccc(Cl)cc6)CC5)nc(OCC(F)(F)F)n4)cc3)CC2C1)N1CCCCC1 (centres unmarked) [Compound 1013]	0.01 to 10 nM	
O=C(C(=O)N1CC2CN(C(=O)c3ccc(Nc4nc(NC5(c6ccc(Cl)cc6)CC5)nc(OCC(F)(F)F)n4)cc3)CC2C1)N1CCc2ccccc2C1 (centres unmarked) [Compound 1014]	0.01 to 10 nM	
O=C(NC1CCCCC1)C(=O)N1CC2CN(C(=O)c3ccc(Nc4nc(NC5(c6ccc(Cl)cc6)CC5)nc(OCC(F)(F)F)n4)cc3)CC2C1 (centres unmarked) [Compound 1015]	0.01 to 10 nM	
Cc1nnc(NC(=O)C(=O)N2CC3CN(C(=O)c4ccc(Nc5nc(NC6(c7ccc(Cl)cc7)CC6)nc(OCC(F)(F)F)n5)cc4)CC3C2)s1 (centres unmarked) [Compound 1016]	0.01 to 10 nM	
CNC(=O)C(=O)N1CC2CN(C(=O)c3ccc(Nc4nc(NC5(c6ccc(Cl)cc6)CC5)nc(OCC(F)(F)F)n4)cc3)CC2C1 (centres unmarked) [Compound 1017]	10 to 1000 nM	11.1 nM
O=C(Nc1ccc(F)cc1F)C(=O)N1CC2CN(C(=O)c3ccc(Nc4nc(NC5(c6ccc(Cl)cc6)CC5)nc(OCC(F)(F)F)n4)cc3)CC2C1 (centres unmarked) [Compound 1018]	0.01 to 10 nM	
CCc1nnc(NC(=O)C(=O)N2CC3CN(C(=O)c4ccc(Nc5nc(NC6(c7ccc(Cl)cc7)CC6)nc(OCC(F)(F)F)n5)cc4)CC3C2)s1 (centres unmarked) [Compound 1019]	0.01 to 10 nM	
O=C(Nc1nccs1)C(=O)N1CC2CN(C(=O)c3ccc(Nc4nc(NC5(c6ccc(Cl)cc6)CC5)nc(OCC(F)(F)F)n4)cc3)CC2C1 (centres unmarked) [Compound 1020]	0.01 to 10 nM	
